# Reference: US5137811A, “Method for diagnosing periodontal diseases with a substrate specific for aminopeptidase activity of periodontopathic bacteria” (Sunstar Kabushiki Kaisha, priority 1986, dated 1992)
# Where a SMILES comes first, the peptide text is derived from it. The star is where a group is joined. βNA = c1ccc2cc(N*)ccc2c1; Cbz = O=C(OCc1ccccc1)*
# Assays:
# [1] = system: Actinobacillus actinomycetemcomitans; assay: Hydrolytic activity of oral anaerobe cell suspension on aminopeptidase substrates (Experiment 1); type: cell-based; settings: four strains, substrate 0.2 mM, pH 7.0, 37° C., 60 minutes, Table 1
# Method in brief: (§1)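 Treponema grown anaerobically in TYGVS (37 °C, 7 days) and other strains in brain heart infusion (37 °C, 48–72 h), then diluted to A660 1.0. Cells reacted 60 min at 37 °C with β-naphthylamine-derived substrates (0.2 mM solution, 0.1 M Tris-HCl pH 7.0). Garnet GBC coupling, A525 after 15 min; activity graded from mean released β-naphthylamine per strain.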
# Bacteroides gingivalis = assay: as above; type: cell-based; settings: five strains, substrate 0.2 mM, pH 7.0, 37° C., 60 minutes, Table 1
# Method in brief: as §1
# Capnocytophaga sp. = assay: as above; type: cell-based; settings: four strains, substrate 0.2 mM, pH 7.0, 37° C., 60 minutes, Table 1
# Method in brief: as §1
# Fusobacterium nucleatum [2] = assay: as above; type: cell-based; settings: three strains, substrate 0.2 mM, pH 7.0, 37° C., 60 minutes, Table 1
# Method in brief: as §1
# Treponema denticola [3] = assay: as above; type: cell-based; settings: four strains, substrate 0.2 mM, pH 7.0, 37° C., 60 minutes, Table 1
# Method in brief: as §1
# [4] = system: Actinobacillus actinomycetemcomitans; assay: Hydrolytic activity of cell suspension, substrates alone or in combination (Experiment 3); type: cell-based; settings: four strains, Table 3
# Method in brief: (§2)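 Cell suspensions (A660 = 1.0) were grown at 37 °C: Treponema anaerobically in TYGVS for 7 days, others in BHI broth for 48–72 h. They were reacted 60 min at 37 °C with 0.2 mM β-naphthylamide aminopeptidase substrate solutions (0.1 M Tris-HCl, pH 7.0), then Garnet GBC was added and A525 read after 15 min. Mean released β-naphthylamine per species was graded: +++ 40–<80, ++++ ≥80 nmol/ml.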
# Actinomyces israelli = assay: as above; type: cell-based; settings: two strains, Table 3
# Method in brief: as §2
# B. gingivalis = assay: as above; type: cell-based; settings: five strains, Table 3
# Method in brief: as §2
# Fusobacterium nucleatum [5] = assay: as above; type: cell-based; settings: three strains, Table 3
# Method in brief: as §2
# Treponema denticola [6] = assay: as above; type: cell-based; settings: four strains, Table 3
# Method in brief: as §2
# [7] = system: periodontopathic bacteria specific aminopeptidase activity; assay: Hydrolytic activity of gingival crevicular fluid specimens, visually evaluated (Experiment 4); type: biochemical; set-up: key: -: orange; +: dark orange; ++: brown; +++: dark brown
# Protocol: (§3) Substrate compounds for aminopeptidase enzyme having various color developing groups derived from β-naphthylamine were dissolved in 0.1M Tris-HCl buffer (pH 7.0) at the concentration of 0.2 mM to obtain substrate solutions.
# (§4) To the substrate solution (1.5 ml) was added the above cell suspension (0.3 ml) and reacted at 37° C. for 60 minutes. After completion of the reaction, a coloring reagent [prepared by dissolving diazonium salt of Garnet GBC in 1M acetate buffer (containing 10% Tween 20, pH: 4.2) at the concentration of 0.5 mg/ml] was added and, after 15 minutes, the absorption at 525 nm was determined with a spectrophotometer.
# (§5) Specimens of gingival crevicular fluid were collected with paper points from five subjects who were considered to be healthy from their clinical state, six subjects with gingivitis and six subjects with periodontitis. Each specimen was dispersed in Ringer's solution (1.5 ml), and the relative amount of spirochete to total bacteria: [formula] was determined with a phase contrast microscope. Further, the Ringer's solution (0.3 ml) was tested for hydrolytic activity using the substrate solution prepared in the same manner as described in Experiment 1. As substrates, there were used compounds of the formula [1], i.e., N-benzoylvalyl-glycyl-arginine-β-naphthylamide (BzVGR) and N-carbobenzoxy-valyl-glycyl-arginine-β-naphthylamide (CxVGR) were used.
# In table 4, hydrolytic activity was visually evaluated and expressed as follows: […]
# [8] = system: periodontopathic bacteria specific aminopeptidase activity; assay: Hydrolytic activity of gingival crevicular fluid specimens, OD525 (Experiment 6); type: biochemical
# Protocol: as §3, §4, §5
# According to the same manner as described in Experiment 4, hydrolytic activity was tested by using the compounds of the formulas and [2], i.e., glycyl-proline-βnaphthylamide (GP), N-benzoyl-arginyl-glycyl-phenylalanylproline-β-naphthylamide (BzRGFP), N-carbobenzoxy-valylglycyl-arginine-β-naphthylamide (CxVGR) and N-benzoylglycyl-arginine-β-naphthylamide (BzGR) alone or in combination. Hydrolytic activity was determined by measuring absorption at 525 nm (OD525) and expressed as follows.
# [9] = system: periodontopathic bacteria specific aminopeptidase activity; assay: Hydrolytic activity of saliva supernatant (Experiment 7); type: biochemical; settings: 37° C. for 4 hours, Table 7
# Protocol: as §5
# (§6) A saliva mixture was collected from a group consisting of ten healthy subjects and centrifuged to obtain a supernatant. Likewise, centrifuged supernatants were obtained from a group of ten subjects with adult periodontitis and a group of four localized juvenile periodontitis. The supernatant was used as a specimen and its hydrolytic activity was determined according to the same manner as described in Experiment 4 except that the reaction was carried out at 37° C. for 4 hours. As the substrates, there were used N-carbobenzoxy-valyl-glycyl-arginine-p-nitrophenol (CxVGR-pNP), N-carbobenzoxy-valyl-glycylarginine-4-methoxy-2-naphthylamide (CxVGR-4NA) and N-carbobenzoxy-valyl-glycyl-arginine-β-naphthylamide (CxVGR-βNA). Color was developed by using lN sodium hydroxide for CxVGR-pNP and Fast Blue BB for CxVGR-4NA and CxVGR-βNA.
# [10] = system: periodontopathic bacteria specific aminopeptidase activity; assay: Hydrolytic activity of saliva supernatant, substrates alone or in combination (Experiment 9); type: biochemical; settings: 37° C. for 4 hours, Table 9
# Protocol: as §6
# According to the same manner as described in Experiment 7, hydrolytic activity was tested by using N-carbobenzoxy-valyl-glycyl-arginine-β-naphthylamide (CxVGR-βNA), N-benzoyl-arginyl-glycyl-phenylalanyl-proline-β-naphthylamide (BzRGFP-βNA), N-carbobenzoxy-valyl-glycylarginine-p-nitrophenol (CxVGR-pNP) and N-benzoyl-arginylglycyl-phenylalanyl-proline-p-nitrophenol (BzRGFP-pNP) alone or in combination as the substrates.
# [11] = Gingivitis subject 1 (spirochete 7.3 %)
# [12] = Gingivitis subject 2 (spirochete 16.7 %)
# [13] = Gingivitis subject 3 (spirochete 20.5 %)
# [14] = Gingivitis subject 4 (spirochete 6.8 %)
# [15] = Gingivitis subject 5 (spirochete 7.3 %)
# [16] = Gingivitis subject 6 (spirochete 14.4 %)
# [17] = Healthy subject 1 (spirochete 0.1 %)
# [18] = Healthy subject 2 (spirochete 2.5 %)
# [19] = Healthy subject 3 (spirochete 1.1 %)
# [20] = Healthy subject 4 (spirochete 0.6 %)
# [21] = Healthy subject 5 (spirochete 1.3 %)
# [22] = Periodontitis subject 1 (spirochete 45.2 %)
# [23] = Periodontitis subject 2 (spirochete 30.3 %)
# [24] = Periodontitis subject 3 (spirochete 34.6 %)
# [25] = Periodontitis subject 4 (spirochete 21.2 %)
# [26] = Periodontitis subject 5 (spirochete 40.3 %)
# [27] = Periodontitis subject 6 (spirochete 35.1 %)
# [28] = Localized juvenile periodontitis subjects
smiles,measurement,setting,value
"CC(C)[C@H](NC(=O)OCc1ccccc1)C(=O)NCC(=O)N[C@@H](CCCNC(=N)N)C(=O)Nc1ccc2ccccc2c1 [CxVGR, N-carbobenzoxy-valyl-glycyl-arginine-β-naphthylamide] (Cbz-Val-Gly-Arg-βNA)",hydrolytic activity (average amount of released β-naphthylamine),[1],- (release amount<5 nmol/ml)
same,hydrolytic activity (average amount of released β-naphthylamine),Bacteroides gingivalis,+++ (release amount≥40 nmol/ml)
same,hydrolytic activity (average amount of released β-naphthylamine),Capnocytophaga sp.,- (release amount<5 nmol/ml)
same,hydrolytic activity (average amount of released β-naphthylamine),Fusobacterium nucleatum [2],- (release amount<5 nmol/ml)
same,hydrolytic activity (average amount of released β-naphthylamine),Treponema denticola [3],+++ (release amount≥40 nmol/ml)
same,hydrolytic activity (release amount),[4],- (release amount<5 nmol/ml)
same,hydrolytic activity (release amount),Actinomyces israelli,- (release amount<5 nmol/ml)
same,hydrolytic activity (release amount),B. gingivalis,+++ (40≤release amount<80 nmol/ml)
same,hydrolytic activity (release amount),Fusobacterium nucleatum [5],- (release amount<5 nmol/ml)
same,hydrolytic activity (release amount),Treponema denticola [6],+++ (40≤release amount<80 nmol/ml)
same,"hydrolytic activity, visually evaluated",[7]; [11],+
same,"hydrolytic activity, visually evaluated",[7]; [12],+
same,"hydrolytic activity, visually evaluated",[7]; [13],++
same,"hydrolytic activity, visually evaluated",[7]; [14],-
same,"hydrolytic activity, visually evaluated",[7]; [15],-
same,"hydrolytic activity, visually evaluated",[7]; [16],+
same,"hydrolytic activity, visually evaluated",[7]; [17],-
same,"hydrolytic activity, visually evaluated",[7]; [18],+
same,"hydrolytic activity, visually evaluated",[7]; [19],-
same,"hydrolytic activity, visually evaluated",[7]; [20],-
same,"hydrolytic activity, visually evaluated",[7]; [21],-
same,"hydrolytic activity, visually evaluated",[7]; [22],+++
same,"hydrolytic activity, visually evaluated",[7]; [23],+++
same,"hydrolytic activity, visually evaluated",[7]; [24],+++
same,"hydrolytic activity, visually evaluated",[7]; [25],+++
same,"hydrolytic activity, visually evaluated",[7]; [26],+++
same,"hydrolytic activity, visually evaluated",[7]; [27],+++
same,"hydrolytic activity, absorption at 525 nm (OD525)",[8]; [11],+ (0.1≤OD525 <0.2)
same,"hydrolytic activity, absorption at 525 nm (OD525)",[8]; [12],+ (0.1≤OD525 <0.2)
same,"hydrolytic activity, absorption at 525 nm (OD525)",[8]; [13],++ (0.2≤OD525 <0.4)
same,"hydrolytic activity, absorption at 525 nm (OD525)",[8]; [14],- (OD525 <0.1)
same,"hydrolytic activity, absorption at 525 nm (OD525)",[8]; [15],- (OD525 <0.1)
same,"hydrolytic activity, absorption at 525 nm (OD525)",[8]; [16],+ (0.1≤OD525 <0.2)
same,"hydrolytic activity, absorption at 525 nm (OD525)",[8]; [17],- (OD525 <0.1)
same,"hydrolytic activity, absorption at 525 nm (OD525)",[8]; [18],+ (0.1≤OD525 <0.2)
same,"hydrolytic activity, absorption at 525 nm (OD525)",[8]; [19],- (OD525 <0.1)
same,"hydrolytic activity, absorption at 525 nm (OD525)",[8]; [20],- (OD525 <0.1)
same,"hydrolytic activity, absorption at 525 nm (OD525)",[8]; [21],- (OD525 <0.1)
same,"hydrolytic activity, absorption at 525 nm (OD525)",[8]; [22],+++ (0.4≤OD525 <0.8)
same,"hydrolytic activity, absorption at 525 nm (OD525)",[8]; [23],+++ (0.4≤OD525 <0.8)
same,"hydrolytic activity, absorption at 525 nm (OD525)",[8]; [24],+++ (0.4≤OD525 <0.8)
same,"hydrolytic activity, absorption at 525 nm (OD525)",[8]; [25],+++ (0.4≤OD525 <0.8)
same,"hydrolytic activity, absorption at 525 nm (OD525)",[8]; [26],+++ (0.4≤OD525 <0.8)
same,"hydrolytic activity, absorption at 525 nm (OD525)",[8]; [27],+++ (0.4≤OD525 <0.8)
same,hydrolytic activity,[9]; Adult Periodontitis subjects,35.6 ± 9.8 nmol/mL
same,hydrolytic activity,[9]; Healthy subjects,16.1 ± 10.3 nmol/mL
same,hydrolytic activity,[9]; [28],33.4 ± 10.0 nmol/mL
same,hydrolytic activity,[10]; Adult Periodontitis subjects,34.8 ± 10.2 nmol/mL
same,hydrolytic activity,[10]; Healthy subjects,15.0 ± 8.8 nmol/mL
same,hydrolytic activity,[10]; [28],31.5 ± 9.8 nmol/mL
